{"source": "patent US20240368278A1", "about": "“GENERATION AND CHARACTERIZATION OF NOVEL TIM-4 BINDING AGENTS” (Heat Biologics, Inc., priority 2021, published 2024)", "key": {"[1]": {"tested_on": "THP-1 cells", "assay": "Phagocytosis assay in THP-1 cells with phosphatidylserine lipid microparticles", "assay_type": "cell-based", "conditions": "for inhibition of phagocytosis (RFU): phosphatidylserine lipid microparticles, peptides at 100 μg/mL, 3 h under serum starvation, vs untreated control", "text": "FIG. 2A, FIG. 2B, and FIG. 2C show an image of the THP-1 experimental workflow, an image of THP-1 cells undergoing phagocytosis, and a graph showing data from the phagocytosis experiment. FIG. 2A is an image of the experimental workflow. FIG. 2B is a graph showing data from the peptides derived from the CDR3 regions of antibodies tested in the phagocytosis assay. In FIG. 2B, along the x-axis, “156-1G” refers to SEQ ID NO: 7, “156-IH” refers to SEQ ID NO: 11, “156-2B” refers to SEQ ID NO: 3, and “156-2F” refers to SEQ ID NO: 15. In this assay, cells were treated with the indicated treatments, and cytochalasin D (20 μM) was used as a control to show phagocytosis failure. CDR3 regions from antibodies that bound to Tim-4 were synthesized as peptides, and subsequently tested. The data shown in FIG. 2B represents peptides tested at 100 μg/mL. Statistics were performed using a one-way ANOVA followed by a multiple comparison test comparing each treatment to “untreated” control (p>0.05=*, ns=not significant). […] Phosphatidylserine (“PS”) lipid microparticles are shown and superimposed onto brightfield images of THP-1 cells. […] Scale bar represents 150 μm.\nPhagocytosis assays using the developed peptides derived from the CDR3 regions of antibodies (e.g., SEQ ID NO: 35, SEQ ID NO: 36, SEQ ID NO: 37, and SEQ ID NO: 38) and THP-1 cells were completed by following the experimental outline shown in FIG. 2A. In these experiments, 1×10^5 cells were seeded on a 96 well plate, and the synthesized peptides (e.g., SEQ ID NO: 35, SEQ ID NO: 36, SEQ ID NO: 37, and SEQ ID NO: 38) were then added onto the plate for three hours under serum starvation. Phosphatidylserine lipid microparticles were then added in media containing 10% FBS. Cells were then washed 3 to 5 times with PBS, and the level of fluorescence (e.g., relative fluorescence units, “RFU”) was then analyzed with a plate reader. In these experiments, cytochalasin D (20 μM) was used as a control to show phagocytosis failure. […]"}, "[2]": {"tested_on": "Tim4-Hek293-FT cells", "assay": "Phagocytosis assay in Tim4-Hek293-FT cell line", "assay_type": "cell-based", "conditions": "for inhibition of phagocytosis (RFU): Tim4-Hek293-FT cells, 96 well plate, vs untreated control", "procedure": "Stable Tim-4 expression was confirmed by RT-PCR using primers against Tim-4 mRNA and Gapdh mRNA (control). […] Scale bar represents 300 μm.\nIn FIG. 5A, the Tim4-Hek293-FT cells were plated in a 96 well plate, followed by the phagocytosis assay. Statistical analysis was performed using a t-test (p>0.05=*). Relative fluorescence units (“RFU”) were normalized to fluorescent intensity at hour zero. In FIG. 5B, Tim4-Hek293-FT cells were fixed and immunolabeled against Tim-4 and counterstained with DAPI. […] Arrows indicate phosphatidylserine bead. Scale bar represents 75 μm.\nIn FIG. 7A, cells were plated on a 96 well plate and treatments were performed similar to FIG. 2A. Statistics were performed using a one-way ANOVA followed by a multiple comparison test comparing each treatment to the “untreated” control (p>0.05=*, p>0.01=**, p>0.001=***). […] In FIG. 7A, “116-117 1A” is SEQ ID NO: 30 ([…]), “116-117 2C” is SEQ ID NO: 23 ([…]), “116-117 2D” is SEQ ID NO: 24 ([…]), “116-117 2F” is SEQ ID NO: 25 ([…]), “116-117 3B” is SEQ ID NO: 26 ([…]), “116-117 3C” is SEQ ID NO: 27 ([…]), “116-117 3E” is SEQ ID NO: 17 ([…]), “116-117 3F” is SEQ ID NO: 28 ([…]), “116-117 4A” is SEQ ID NO: 22 ([…]), and “116-117 4G” is SEQ ID NO: 29 ([…]). […] Scale bar represents 150 μm.\nTo further validate the function of the synthesized peptides, a Tim4-Hek293-FT cell line was developed (FIG. 4A).\nA phagocytosis assay, as previously described above and following the experimental outline of FIG. 2A, was performed in the Tim4-Hek293-FT cells. In these experiments, cytochalasin D (20 μM) was used as a control to show phagocytosis failure. […] The inhibition of phagocytosis by SEQ ID NO: 17 is also shown in the immunofluorescence images of FIG. 7B."}, "[3]": {"tested_on": "THP-1 cells", "assay": "Phagocytosis assay in THP-1 cells with carboxylate beads", "assay_type": "cell-based", "conditions": "96 well plate, vs untreated control", "procedure": "FIG. 3A and FIG. 3B are graphs showing dose response curves of the phagocytosis assay in THP-1 cells using both PS beads and carboxylate beads.\nIn FIG. 8A, cells were plated on a 96 well plate and treatments were performed with carboxylate beads. Statistics were performed using a one-way ANOVA followed by a multiple comparison test comparing each treatment to the “untreated” control (p>0.05=*, p>0.01=**, p>0.001=***, p>0.0001=****). FIG. 8B are representative images of the phagocytosis assay. […] Scale bare represents 150 μm. […] Scale bar represents 150 μm. FIG. 8D is a graph of a dose response curve.\n(§1) To further validate the function of the synthesized peptide, SEQ ID NO: 17, a phagocytosis assay using SEQ ID NO: 17 in THP-1 cells (FIG. 8A, FIG. 8B, FIG. 8C, and FIG. 8D), and in RAW 264.7 cells (FIG. 9A and FIG. 9B), was performed. […] A dose response curve for SEQ ID NO: 17 in THP-1 cells was generated (FIG. 8D). […] A dose response curve for SEQ ID NO: 17 in RAW 264.7 cells was generated (FIG. 9B)."}, "[4]": {"tested_on": "THP-1 cells", "assay": "Autophagy assay (autophagosome formation) in THP-1 cells", "assay_type": "cell-based", "conditions": "labeled autophagosomes, Hoechst nuclear stain", "text": "In FIG. 11B, autophagosomes are labeled and Hoechst stain is used for nuclear staining."}, "[5]": {"target": "T1, Tim-4 (Homo sapiens, UniProt Q96H15)", "T1 sequence (Q96H15 25-378)": "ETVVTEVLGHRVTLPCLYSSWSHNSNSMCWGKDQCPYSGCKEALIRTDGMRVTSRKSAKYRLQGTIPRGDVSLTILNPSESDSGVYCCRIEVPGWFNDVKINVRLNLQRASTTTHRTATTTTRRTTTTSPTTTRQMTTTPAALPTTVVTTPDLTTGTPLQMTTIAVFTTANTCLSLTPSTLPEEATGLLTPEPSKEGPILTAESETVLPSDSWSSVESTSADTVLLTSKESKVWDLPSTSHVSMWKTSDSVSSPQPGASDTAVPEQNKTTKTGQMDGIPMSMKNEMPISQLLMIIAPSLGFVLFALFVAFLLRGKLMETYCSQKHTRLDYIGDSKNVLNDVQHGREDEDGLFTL", "assay": "Binding to Tim-4 (identification of binders)"}, "[6]": {"tested_on": "RAW 264.7 cells", "assay": "RAW phagocytosis assay with carboxylate beads", "assay_type": "cell-based, mouse", "conditions": "across a range of doses", "procedure": "In FIG. 9A, cells were plated on a 96 well plate and treatments were performed with carboxylate beads. Statistics were performed using a one-way ANOVA, followed by a multiple comparison test comparing each treatment to the “untreated” control (p>0.05=*, p>0.01=**, p>0.001=***, p>0.0001=****). In FIG. 9B, a dose response curve of a RAW phagocytosis assay was performed using mouse macrophages RAW cells with cytochalasin D as a control, and graphed in log scale.\nas §1"}}, "note": "Entries after “also recorded” stand apart in the source; their conditions may differ."}
{"sequence": "KVAVMTMAEANRRGTYSS [SEQ ID NO: 3]", "values": [{"measurement": "inhibition of phagocytosis (RFU)", "setting": "[1]", "value": "significantly inhibited phagocytosis"}, {"measurement": "inhibition of phagocytosis (RFU)", "setting": "[2]", "value": "inhibit phagocytosis; also recorded: limit phagocytosis"}]}
{"sequence": "QCYANHMYCNDSIAVYHFQM [SEQ ID NO: 17]", "values": [{"measurement": "inhibition of phagocytosis", "setting": "[3]", "value": "inhibited phagocytosis"}, {"measurement": "inhibition of phagocytosis", "setting": "[3]; listed as 116-117 3E", "value": "inhibits phagocytosis"}, {"measurement": "autophagosome formation", "setting": "[4]", "value": "reduces autophagosome formation"}, {"measurement": "inhibition of phagocytosis with phosphatidylserine lipid microparticles compared to carboxylate beads (dose response curves)", "setting": "[1]", "value": "greater inhibition"}, {"measurement": "binding to Tim-4", "setting": "[5]", "value": "bound to Tim4"}, {"measurement": "phagocytosis of the phosphatidylserine bead (immunofluorescence image)", "setting": "[2]; Tim4-Hek293-FT cells fixed, immunolabeled against Tim-4, DAPI", "value": "reduced ability of phagocytosis"}, {"measurement": "inhibition of phagocytosis (RFU)", "setting": "[2]", "value": "inhibited phagocytosis"}, {"measurement": "inhibition of phagocytosis (RFU)", "setting": "[2]; listed as 116-117 3E", "value": "inhibits phagocytosis"}, {"measurement": "inhibition of phagocytosis", "setting": "[6]", "value": "inhibited phagocytosis"}]}
{"sequence": "QTLAFAYNDSDWFEVYKG [156-1G]", "values": [{"measurement": "inhibition of phagocytosis (RFU)", "setting": "[1]", "value": "significantly inhibited phagocytosis"}]}
